Values of other authors as cited in article PMC7395068, “The evolution of strategies to minimise the risk of human drug-induced liver injury (DILI) in drug discovery and development” (Archives of Toxicology, 2020).
Counter-ions that a name gives are not always drawn. Like-named read-outs stand apart in the source and are kept apart here. *1 amine or outer side, *2 acyl side, *3 side chain or, on linkers, in order; H or OH if unused. Where a SMILES comes first, the peptide text is derived from it. Bridges are numbered along the chain shown (N, C = ends). [ ]: non-standard residue; d: D form. The star is where a group is joined. hTyr(3S-OH,4S-OH,3'-OSO3H) = N[C@H](C(=O)O)[C@H](O)[C@@H](O)c1ccc(O)c(OS(=O)(=O)O)c1; Orn(4R-OH,5R-OH) = O=C([C@H](C[C@@H](O)[C@@H](O)N[*:3])N[*:1])[*:2]; Pro(3S-OH,4S-Me) = C[C@H]1CN[C@H](C(=O)O)[C@H]1O; X1 = CCCCCOc1ccc(-c2cc(-c3ccc(C(=O)*)cc3)no2)cc1; Gln(3R-OH) = NC(=O)C[C@@H](O)[C@H](N)C(=O)O; Hyp = O=C(O)[C@@H]1C[C@@H](O)CN1

Conditions: cited from earlier work
[1] = binary in vivo DILI call given beside the severity category, ref Chen 2016
[2] = human DILI concern category (LTKB DILIrank), ref Chen 2016

| Structure (SMILES) | DILI +VE (5-8), DILI -VE (-4) [1] | DILI severity category [2] | DILI +VE (5-8), DILI -VE (-4) (in vivo) | DILI severity category (in vivo) |
| --- | --- | --- | --- | --- |
| C[N@+]1(CC2CC2)CC[C@]23c4c5ccc(O)c4O[C@H]2C(=O)CC[C@@]3(O)[C@H]1C5 [methylnaltrexone bromide] | -VE | vNo-DILI-Concern | – | – |
| COC(=O)C(c1ccccc1)C1CCCCN1 (stereo not shown) [methylphenidate] | – | – | +VE | vLess-DILI-Concern |
| C[C@H]1C[C@@H]2[C@H]([C@@H](O)C[C@@]3(C)[C@H]2CC[C@]3(O)C(=O)CO)[C@@]2(C)C=CC(=O)C=C12 [methylprednisolone] | +VE | vLess-DILI-Concern | – | – |
| C[C@]12CCC(=O)C=C1CC[C@@H]1[C@@H]2CC[C@@]2(C)[C@H]1CC[C@]2(C)O [methyltestosterone] | +VE | vLess-DILI-Concern | – | – |
| CC[C@@H](CO)NC(=O)[C@@H]1C=C2c3cccc4c3c(cn4C)C[C@H]2N(C)C1 [methysergide] | -VE | vNo-DILI-Concern | – | – |
| Cc1ccccc1N1C(=O)c2cc(S(N)(=O)=O)c(Cl)cc2NC1C (stereo not shown) [metolazone] | -VE | Ambiguous DILI-concern | – | – |
| CC(C)(C(=O)c1cccnc1)c1cccnc1 [metyrapone] | -VE | vNo-DILI-Concern | – | – |
| CCCCCOc1ccc(-c2cc(-c3ccc(C(=O)N[C@H]4C[C@@H](O)[C@@H](O)NC(=O)[C@@H]5[C@@H](O)[C@@H](C)CN5C(=O)[C@H]([C@H](O)CC(N)=O)NC(=O)[C@H]([C@H](O)[C@@H](O)c5ccc(O)c(OS(=O)(=O)O)c5)NC(=O)[C@@H]5C[C@@H](O)CN5C(=O)[C@H]([C@@H](C)O)NC4=O)cc3)no2)cc1 [micafungin] (X1-[Orn(4R-OH,5R-OH)]T[Hyp][hTyr(3S-OH,4S-OH,3'-OSO3H)][Gln(3R-OH)][Pro(3S-OH,4S-Me)]; lactam 1-C) | +VE | vMost-DILI-Concern | – | – |
| OCCN1C[C@H](O)[C@@H](O)[C@H](O)[C@H]1CO [miglitol] | -VE | vNo-DILI-Concern | – | – |
| CCCCN1C[C@H](O)[C@@H](O)[C@H](O)[C@H]1CO [miglustat] | -VE | vNo-DILI-Concern | – | – |
| Clc1ccc(C(c2ccccc2Cl)C(Cl)Cl)cc1 (stereo not shown) [mitotane] | -VE | vNo-DILI-Concern | – | – |
| COc1cc2c(cc1OC)[C@@H](Cc1cc(OC)c(OC)c(OC)c1)[N+](C)(CCCOC(=O)CC/C=C/CCC(=O)OCCC[N+]1(C)CCc3cc(OC)c(OC)cc3[C@H]1Cc1cc(OC)c(OC)c(OC)c1)CC2 (stereo partly shown) [mivacurium] | -VE | vNo-DILI-Concern | – | – |
| CCOC(=O)[C@H](CCc1ccccc1)N[C@@H](C)C(=O)N1Cc2cc(OC)c(OC)cc2C[C@H]1C(=O)O [moexipril] | -VE | Ambiguous DILI-concern | – | – |
| CC(C)(O)c1ccccc1CC[C@@H](SCC1(CC(=O)O)CC1)c1cccc(/C=C/c2ccc3ccc(Cl)cc3n2)c1 [montelukast] | – | – | +VE | vLess-DILI-Concern |
| CCOC(=O)Nc1ccc2c(c1)N(C(=O)CCN1CCOCC1)c1ccccc1S2 [moricizine] | -VE | Ambiguous DILI-concern | – | – |
| COc1c(N2C[C@@H]3CCCN[C@@H]3C2)c(F)cc2c(=O)c(C(=O)O)cn(C3CC3)c12 [moxifloxacin] | – | – | +VE | vLess-DILI-Concern |
| COc1c(C)c2c(c(O)c1C/C=C(\C)CCC(=O)OCCN1CCOCC1)C(=O)OC2 [mycophenolate mofetil] | +VE | vLess-DILI-Concern | – | – |
| COc1c(C)c2c(c(O)c1C/C=C(\C)CCC(=O)O)C(=O)OC2 [mycophenolic acid] | -VE | Ambiguous DILI-concern | – | – |

| Structure (SMILES) | DILI +VE (5-8), DILI -VE (-4) [1] | DILI severity category [2] | DILI +VE (5-8), DILI -VE (-4) (in vivo) | DILI severity category (in vivo) |
| --- | --- | --- | --- | --- |
| CCCCCCC(C)(C)c1cc(O)c2c(c1)OC(C)(C)C1CCC(=O)CC21 (stereo not shown) [nabilone] | -VE | vNo-DILI-Concern | – | – |
| COc1ccc2cc(CCC(C)=O)ccc2c1 [nabumetone] | -VE | Ambiguous DILI-concern | – | – |
| CCOc1ccc2ccccc2c1C(=O)N[C@@H]1C(=O)N2[C@@H]1SC(C)(C)[C@@H]2C(=O)O [nafcillin] | +VE | vLess-DILI-Concern | – | – |
| C=C1CC[C@@]2(O)[C@H]3Cc4ccc(O)c5c4[C@@]2(CCN3CC2CC2)[C@H]1O5 [nalmefene hydrochloride] | -VE | Ambiguous DILI-concern | – | – |
| CCCCCCCCCC(=O)O[C@H]1CC[C@H]2[C@@H]3CCC4=CC(=O)CC[C@@H]4[C@H]3CC[C@]12C [nandrolone decanoate] | +VE | vMost-DILI-Concern | – | – |
| CNS(=O)(=O)CCc1ccc2[nH]cc(C3CCN(C)CC3)c2c1 [naratriptan] | -VE | Ambiguous DILI-concern | – | – |
| COc1nc(N)nc2c1ncn2[C@@H]1O[C@H](CO)[C@@H](O)[C@@H]1O [nelarabine] | +VE | vLess-DILI-Concern | – | – |
| NC[C@@H]1O[C@H](O[C@H]2[C@@H](O)[C@H](O[C@@H]3[C@@H](O)[C@H](N)C[C@H](N)[C@H]3O[C@H]3O[C@H](CN)[C@@H](O)[C@H](O)[C@H]3N)O[C@@H]2CO)[C@H](N)[C@@H](O)[C@@H]1O [neomycin] | – | – | -VE | vNo-DILI-Concern |
| CN(C)Cc1ccc(CSCCN/C(=C\[N+](=O)[O-])NCc2ccc3c(c2)OCO3)o1 [niperotidine] | +VE | vMost-DILI-Concern | – | – |
| CC(=O)Oc1ccccc1C(=O)Nc1ncc([N+](=O)[O-])s1 [nitazoxanide] | -VE | vNo-DILI-Concern | – | – |
| O=C1CCCC(=O)C1C(=O)c1ccc(C(F)(F)F)cc1[N+](=O)[O-] [nitisinone] | -VE | Ambiguous DILI-concern | – | – |
| Cc1nc([N+](=O)[O-])cn1-c1ccc([N+](=O)[O-])cc1 [nitrefazole] | +VE | vMost-DILI-Concern | – | – |
| C#C[C@]1(OC(C)=O)CC[C@H]2[C@@H]3CCC4=CC(=O)CC[C@@H]4[C@H]3CC[C@@]21C [norethindrone acetate] | -VE | vNo-DILI-Concern | – | – |
| C[C@@H]1[C@H](O)[C@@H](C)/C=C/C=C/CC/C=C/C=C/C=C/C=C/C(O[C@H]2O[C@H](C)[C@@H](O)[C@H](N)[C@@H]2O)CC2O[C@](O)(CC(O)C(O)CCC(O)CC(O)CC(O)CC(=O)O[C@H]1C)CC(O)C2C(=O)O (stereo partly shown) [nystatin] | -VE | vNo-DILI-Concern | – | – |
| O=C(O)c1cc(/N=N/c2ccc(O)c(C(=O)O)c2)ccc1O [olsalazine] | +VE | vLess-DILI-Concern | – | – |
| Cc1nccn1CC1CCc2c(c3ccccc3n2C)C1=O (stereo not shown) [ondansetron] | +VE | vLess-DILI-Concern | – | – |
| Cc1onc(-c2ccccc2)c1C(=O)N[C@@H]1C(=O)N2[C@@H]1SC(C)(C)[C@@H]2C(=O)O [oxacillin] | +VE | vLess-DILI-Concern | – | – |
